Tested on: sebaceous glands of Syrian hamster ears
Test: Syrian hamster ear model of sebum secretion, HPLC of cholesterol ester and wax ester
Type: in vivo
Conditions: topical 1 w/v %, 4 weeks; for % Reduction in CE, change vs. relevant vehicle control: cholesterol ester; for % Reduction in CE, change vs. relevant vehicle control / % Reduction in WE, change vs. relevant vehicle control: twice daily, five days a week, right ear, negative = increase; for Sum CE + WE, change vs. relevant vehicle control: summation of % reduction in CE and in WE; for % Reduction in WE, change vs. relevant vehicle control: wax ester; for effect on CE and WE (sebum) secretion, in words: compared to the control
Description: Luderschmidt et al describes an animal model for testing whether compounds are capable of modulating sebum secretion. Arch. Derm. Res. 258, 185-191 (1977). This model uses Syrian hamsters, whose ears contain sebaceous glands. Compounds can be administered to these animals to determine if a test agent is capable of modulating sebum production
Testing for sebum inhibition was carried out in the following manner. Male Syrian hamsters aged 9 to 10 weeks were introduced into the laboratory environment and acclimated for 2 weeks prior to use in the study. Each group consisted of 5 animals and were run in parallel with vehicle and positive controls. Prior to administration, 10 mg of each compound was dissolved in 1 mL of Universal solvent (ethanol/propylene glycol (70/30% v/v) to achieve a final concentration of 1 w/v %.
Animals were dosed topically twice daily, five days a week, for 4 weeks. Each dose consisted of 25 micro liters of vehicle control or drug. The dose was applied to the ventral surfaces of both the right and left ears. All animals were sacrificed approximately 18-24 hours after the final dose. The right ears were collected from each animal and used for sebum analysis.
The ears were prepped for HPLC analysis in the following manner. One 8 mm distal biopsy punch was taken, just above the anatomical “V” mark in the ear to normalize the sample area. The punch was pulled apart. The ventral biopsy surface (the area where the topical dose was directly applied to the sebaceous glands) was retained for testing and the dorsal surface of the biopsy punch was discarded.
Tissue samples were blown with N2 gas and stored at −80° C. under nitrogen until HPLC analysis. In addition to ear samples, an aliquot of each drug and vehicle (at least 250 ul) was also stored at −80° C. for inclusion in the HPLC analysis.
HPLC analysis was carried out on an extract of the tissue sample. Tissue samples were contacted with 3 ml of solvent (a 4:1 admixture of 2,2,4-trimethylpentane and isopropyl alcohol). The mixture was shaken for 15 minutes and stored overnight at room temperature, protected from light. The next morning 1 milliliter of water was added to the sample and shaken for 15 minutes. The sample was then centrifuged at approximately 1500 rpm for 15 minutes. Two ml of the organic phase (top layer) was transferred to a glass vial, dried at 37° C., under nitrogen, for approximately 1 hour, and then lyophilized for approximately 48 hours. The samples were then removed from the lyophilizer and each vial was reconstituted with 600 μl of solvent A (trimethylpentane/tetrahydrofuran (99:1). The samples were then recapped and vortexed for 5 minutes.
200 μl of each sample was then transferred to a pre-labeled 200 μl HPLC vial with 200 μL glass inserts. The HPLC vials were placed in the autosampler tray for the Agilent 1100 series HPLC unit. The Agilent 1100 HPLC system consisted of a thermostated autosampler, a quarternary pump, a column heater, and an A/D interface module. All components were controlled by Agilent ChemStation software. A Waters Spherisorb S3W 4.6×100 mm analytical column was maintained at 30° C. by the Agilent column heater unit. The HPLC autosampler was programmed to maintain the sample temperature at 20° C. throughout the run.
10 uL of each sample was injected in triplicate into the column. Two solvents were used for the solvent gradient. Solvent A was an admixture of trimethylpentane and tetrahydrofuran (99:1). Solvent B was ethylacetate. The gradient utilized is described in the table below: […]
The Sedex 75 Evaporative Light Scattering Detector (ELSD) was operated at 45° C. with a gain of 5, and N2 pressure maintained at 3.1 bar. Analog signal obtained by the instrument was sent to the Agilent A/D interface module where it was converted to a digital output. The conversion was based on a 10000 mAU/volt set point and the data rate was set at 10 Hz (0.03 min). […]

SMILES	% Reduction in CE, change vs. relevant vehicle control [%]	Sum CE + WE, change vs. relevant vehicle control [%]	% Reduction in WE, change vs. relevant vehicle control [%]	effect on CE and WE (sebum) secretion, in words
CCCCCCCCCCCCn1nnc(C(C(=O)Nc2c(OC)cc(OC)cc2OC)c2ccccc2)n1 (centres unmarked) [Compound 11]	−5	−11	−6	–
CC(C)c1cccc(C(C)C)c1NC(=O)CC(=O)CC(c1ccccc1)c1ccccc1 [Compound 9]	7	9	2	–
CC(C)c1cccc(C(C)C)c1NC(=O)CC(=O)N(CCN(C)C)Cc1ccccc1 [Compound 4]	−1	−19	−18	–
CCCCCCCCCCCCn1nnc(C(C(=O)Nc2c(C(C)C)cccc2C(C)C)c2ccccc2)n1 (centres unmarked) [Compound 10]	−105	−252	−147	–
CC(C)c1cccc(C(C)C)c1NC(=O)Nc1nnn(CCCCCCCCCCCO)n1 [Compound 26]	28	37	9	–
COc1ccccc1CN[C@@H](CNC(=O)Nc1c(C(C)C)cccc1C(C)C)c1ccccc1 [Compound 21]	4	7	3	–
COc1cccc2c1CCC(NC(=O)Nc1c(C(C)C)cccc1C(C)C)C2 (centres unmarked) [Compound 30]	−10	−44	−34	–
CC(=O)OC(C(=O)N(CC(=O)Nc1c(C(C)C)cccc1C(C)C)Cc1ccccc1)c1ccccc1 (centres unmarked) [Compound 29]	19	30	11	–
COc1ccc(CN(C(=O)CC(=O)Nc2c(C(C)C)cccc2C(C)C)c2ncccn2)cc1 [Compound 5]	32	28	−4	–
CCCCCCCCCCCCn1nnc(CC(=O)Nc2c(C)nn(C)c2C)n1 [Compound 18]	−23	−72	−49	–
COc1ccc(CN(C(=O)CC(=O)Nc2c(C(C)C)cccc2C(C)C)c2ccccn2)cc1 [Compound 3]	51	84	33	comparable results
CSc1ccc(CN(C(=O)CC(=O)Nc2c(C(C)C)cccc2C(C)C)C(C)C)cc1 [Compound 2]	65	96	31	comparable results
CC(C)c1cccc(C(C)C)c1NC(=O)NCC1(c2ccc(CO)cc2)CCCC1 [Compound 16]	−1	−1	0	–
CC(C)c1cccc(C(C)C)c1NC(=O)NCCc1c[nH]c2ccccc12 [Compound 31]	9	18	9	–
CC(C)c1cccc(C(C)C)c1NC(=O)NCC1(c2cccc(CN3CCOCC3)c2)CCCC1 [Compound 24]	20	21	1	–
COc1cc(OC)cc(C(NCC(=O)Nc2c(C(C)C)cccc2C(C)C)c2ccccc2)c1 (centres unmarked) [Compound 25]	10	7	−3	–
CC(C)c1cccc(C(C)C)c1NC(=O)NCC1(c2ccccc2)CC1 [Compound 28]	0	−8	−8	–
CC(C)c1cccc(C(C)C)c1NC(=O)NCC1(c2cccc(CN(CCO)CCO)c2)CCCC1 [Compound 23]	4	−80	−84	–
CC(C)c1cccc(C(C)C)c1NC(=O)NCC1(c2ccco2)CCC1 [Compound 20]	4	3	−1	–
CCCCCCCCCCCCn1nnc(CNC(=O)Nc2c(C(C)C)cccc2C(C)C)n1 [Compound 19]	−6	−5	1	–
CC(C)c1cccc(C(C)C)c1NC(=O)NCC1(c2ccccc2)CCOCC1 [Compound 13]	−7	−14	−7	–
CCCCCCCC1CCC(C(=O)Nc2c(C(C)C)cccc2C(C)C)C(=O)O1 (centres unmarked) [Compound 15]	24	38	14	–
CC(C)c1cccc(C(C)C)c1NC(=O)CC(=O)N(CCC#N)Cc1ccccc1 [Compound 6]	23	22	−1	–
CCCCCCCCCCCCCC(=O)CC(=O)Nc1c(C(C)C)cccc1C(C)C [Compound 14]	−8	−23	−15	–
CC(C)c1cccc(C(C)C)c1NC(=O)CC(=O)N(c1ccccc1)C(C)C [Compound 8]	−27	−97	−70	–
CCCCCCCCCCCCOP(=O)(CC(=O)Nc1c(C(C)C)cccc1C(C)C)c1ccccc1 (centres unmarked) [Compound 12]	48	92	44	–
CC(C)c1cccc(C(C)C)c1NC(=O)NCC1(c2ccccn2)CCCC1 [Compound 17]	−56	−120	−64	–

Reference: US8409595B2, “Method for decreasing sebum production” (Medicis Pharmaceutical Corporation, priority 2003, dated 2013)
